Experimental data published in US11655216B2 (priority 2016, dated 2023).
Where two headings read alike, the source gives them in different places.

Assays:
[1] = biological target: T1, glutathione-S-transferase (GST) tagged LXRbeta LBD (ligand binding domain) (Homo sapiens, UniProt P55055); test: LanthaScreen TR-FRET Liver X Receptor Coactivator Assay, LXR beta; type: biochemical; conditions: for EC50: LXR beta IP, potency (Inflection Point), compound-induced co-activator recruitment, TR-FRET; for Emax: read-out: LXR beta actiivty at max dose, efficacy (% Emax) in relation to reference dual agonist T0901317
T1 construct: purchased Invitrogen pv4658
T1 sequence (P55055 222-460 limits assumed): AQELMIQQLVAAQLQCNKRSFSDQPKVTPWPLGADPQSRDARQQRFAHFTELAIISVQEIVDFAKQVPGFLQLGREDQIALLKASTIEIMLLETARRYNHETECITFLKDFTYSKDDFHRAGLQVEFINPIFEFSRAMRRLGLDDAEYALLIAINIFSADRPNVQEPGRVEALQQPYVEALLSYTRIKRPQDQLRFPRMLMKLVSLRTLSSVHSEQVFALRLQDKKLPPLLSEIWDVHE
In short: (§1)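 Test ligands were combined with the receptor LBD, after which terbium-labelled anti-GST antibody and a fluorescein-tagged coactivator peptide were introduced together. Plates sat at room temperature, then time-resolved FRET was measured.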

[2] = biological target: T2, glutathione-S-transferase (GST) tagged LXRalpha LBD (ligand binding domain) (Homo sapiens, UniProt Q13133); test: biochemical
T2 construct: purchased Invitrogen pv4655
T2 sequence (Q13133 209-447 limits assumed): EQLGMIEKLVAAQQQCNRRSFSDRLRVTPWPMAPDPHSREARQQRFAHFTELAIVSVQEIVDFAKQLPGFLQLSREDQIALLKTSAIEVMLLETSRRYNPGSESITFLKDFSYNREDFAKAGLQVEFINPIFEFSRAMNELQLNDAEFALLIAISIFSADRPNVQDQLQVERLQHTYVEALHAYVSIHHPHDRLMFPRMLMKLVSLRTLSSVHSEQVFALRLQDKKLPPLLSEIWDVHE
In short: as §1

[3] = LXR alpha IP, potency (Inflection Point), compound-induced co-activator recruitment, TR-FRET
[4] = read-out: LXR alpha actiivty at max dose, efficacy (% Emax) in relation to reference dual agonist T0901317
[5] = read-out: LXR alpha actiivty at max dose
[6] = potency (Inflection Point), compound-induced co-activator recruitment, TR-FRET
[7] = efficacy (% Emax) in relation to reference dual agonist T0901317
[8] = efficacy (% Emax) in relation to reference dual agonist T0901317, read-out: LXR alpha actiivty at max dose

Row | EC50 [1] | Emax [1] | EC50 [2, 3] | Emax [2, 4] | LXR alpha IP [2, 6] | SMILES | further results
1 | 99 nM | 84% |  |  |  | COc1cccc(C(O)(C(=O)N2CCC(CC(C)CC(C)Oc3ccc(C(=O)N(C)C)c(Cl)c3)CC2)C(F)(F)F)c1 (single isomer, unassigned) [Example 30-1, 2-chloro-N,N-dimethyl-4-(4-methyl-5-(1-((R or S)-3,3,3-trifluoro-2-hydroxy-2-(3-methoxyphenyl)propanoyl)piperidin-4-yl)pentan-2-yloxy)benzamide] | LXR alpha IP [2]: No IP; Emax [2, 5]: 8%
2 | 25 nM | 56% | 284 nM | 27% |  | CC(COc1ccc(C(=O)N(C)C)c(Cl)c1)CC(C)C1CCN(C(=O)C(O)(c2ccccc2)C(F)(F)F)CC1 (single isomer, unassigned) [Example 31-1, 2-chloro-N,N-dimethyl-4-(2-methyl-4-(1-((R or S)-3,3,3-trifluoro-2-hydroxy-2-phenylpropanoyl)piperidin-4-yl)pentyloxy)benzamide] | 
3 | 19 nM | 38% |  | 3% | No IP | COc1cccc(C(O)(C(=O)N2CCC(C(C)CC(C)COc3ccc(C(=O)N(C)C)c(Cl)c3)CC2)C(F)(F)F)c1 (single isomer, unassigned) [Example 31-2, 2-chloro-N,N-dimethyl-4-(2-methyl-4-(1-((R or S)-3,3,3-trifluoro-2-hydroxy-2-(3-methoxyphenyl)propanoyl)piperidin-4-yl)pentyloxy)benzamide] | 
4 | 319 nM | 82% |  |  | No IP | CC(C)C(O)(C(=O)N1CCC(C2CC2COc2ccc(C(=O)N(C)C)c(Cl)c2)CC1)C(F)(F)F (single isomer, unassigned) [Example 32-1, 2-chloro-4-(((1R,2S or 1S,2R)-2-(1-((S or R)-2-hydroxy-3-methyl-2-(trifluoromethyl)butanoyl)piperidin-4-yl)cyclopropyl)methoxy)-N,N-dimethylbenzamide] | LXR alpha actiivty at max dose [2, 7]: 0%
5 | 206 nM |  |  |  | No IP | CC(C)C(O)(C(=O)N1CCC(C2CC2COc2ccc(C(=O)N(C)C)c(Cl)c2)CC1)C(F)(F)F (single isomer, unassigned) [Example 32-2, 2-chloro-4-(((1R,2S or 1S,2R)-2-(1-((R or S)-2-hydroxy-3-methyl-2-(trifluoromethyl)butanoyl)piperidin-4-yl)cyclopropyl)methoxy)-N,N-dimethylbenzamide] | LXR beta actiivty at max dose [1, 7]: 73%; LXR alpha actiivty at max dose [2, 7]: 8%
6 | 105 nM | 125% | 1380 nM | 17% |  | CN(C)C(=O)c1ccc(OC[C@@H]2C[C@H]2C2CCN(C(=O)[C@](O)(c3ccccc3)C(F)(F)C(F)(F)F)CC2)cc1Cl (single isomer, unassigned) [Example 32-3, 2-chloro-N,N-dimethyl-4-(((1R,2S or 1S,2R)-2-(1-((R or S)-3,3,4,4,4-pentafluoro-2-hydroxy-2-phenylbutanoyl)piperidin-4-yl)cyclopropyl)methoxy) benzamide] | 
7 | 163 nM | 60% |  | 0% | No IP | CN(C)C(=O)c1ccc(OC[C@@H]2C[C@H]2C2CCN(C(=O)C(C)(C)c3ccccc3)CC2)cc1Cl (single isomer, unassigned) [Example 32-4, 2-chloro-N,N-dimethyl-4-(((1R,2S or 1S,2R)-2-(1-(2-methyl-2-phenylpropanoyl)piperidin-4-yl)cyclopropyl)methoxy) benzamide] | 
8 | 136 nM | 149% | 1540 nM | 33% |  | CNC(=O)c1ccc(OC[C@H]2C[C@@H]2C2CCN(C(=O)[C@](O)(c3ccccc3)C(F)(F)C(F)(F)F)CC2)cc1Cl (single isomer, unassigned) [Example 32-5, 2-chloro-N-methyl-4-(((1S,2R or 1R,2S)-2-(1-((R or S)-3,3,4,4,4-pentafluoro-2-hydroxy-2-phenylbutanoyl)piperidin-4-yl)cyclopropyl)methoxy) benzamide] | 
9 | 42 nM | 75% | 631 nM | 33% |  | CN(C)C(=O)c1ccc(OC[C@H]2C[C@@H]2C2CCN(C(=O)C(C)(C)c3ccccc3)CC2)cc1Cl (single isomer, unassigned) [Example 32-6, 2-chloro-N,N-dimethyl-4-(((1S,2R or 1R,2S)-2-(1-(2-methyl-2-phenylpropanoyl)piperidin-4-yl)cyclopropyl)methoxy) benzamide] | 
10 | 9 nM | 69% | 329 nM | 42% |  | CN(C)C(=O)c1ccc(OCC2CC3(CCN(C(=O)C(O)(c4ccccc4)C(F)(F)F)CC3)C2)cc1Cl (single isomer, unassigned) [Example 33-1, 2-chloro-N,N-dimethyl-4-((7-((R or S)-3,3,3-trifluoro-2-hydroxy-2-phenylpropanoyl)-7-azaspiro[3.5]nonan-2-yl)methoxy)benzamide] | 
11 | 69 nM | 61% |  |  |  | CN(C)C(=O)c1ccc(OCCCC2CC3(CCN(C(=O)C(O)(c4ccccc4)C(F)(F)F)CC3)C2)cc1Cl (single isomer, unassigned) [Example 35-1, 2-chloro-N,N-dimethyl-4-(3-(7-((R or S)-3,3,3-trifluoro-2-hydroxy-2-phenylpropanoyl)-7-azaspiro[3.5]nonan-2-yl)propoxy)benzamide] | Emax [2, 8]: 27%; EC50 ([2]; potency (Inflection Point), compound-induced co-activator recruitment, TR-FRET, read-out: LXR alpha IP): 546 nM
12 | 66 nM | 52% |  |  | No IP | COc1cccc(C(O)(C(=O)N2CCC3(CCC3CCCOc3ccc(C(=O)N(C)C)c(Cl)c3)CC2)C(F)(F)F)c1 (single isomer, unassigned) [Example 36-1, 2-chloro-N,N-dimethyl-4-(3-(7-((R or S)-3,3,3-trifluoro-2-hydroxy-2-(3-methoxyphenyl)propanoyl)-7-azaspiro[3.5]nonan-1-yl)propoxy)benzamide] | Emax [2, 8]: 3%

Row | SMILES | EC50 [1] | Emax [1] | EC50 [2, 3] | Emax [2, 4] | LXR alpha IP [2, 6] | further results
13 | CN(C)C(=O)c1ccc(OCC(C)(C)CCC2CCN(C(=O)C(O)(c3ccccc3)C(F)(F)F)CC2)cc1Cl (single isomer, unassigned) [Example 29-1, (R or S)-2-chloro-4-(2,2-dimethyl-4-(1-(3,3,3-trifluoro-2-hydroxy-2-phenylpropanoyl)piperidin-4-yl)butoxy)-N,N-dimethylbenzamide] | 173 nM | 48% | 911 nM | 27% |  | 
14 | CN(C)C(=O)c1ccc(OCCC2CC3(CCN(C(=O)C(O)(c4ccccc4)C(F)(F)F)CC3)C2)cc1Cl (single isomer, unassigned) [Example 34-1, 2-chloro-N,N-dimethyl-4-(2-(7-((R or S)-3,3,3-trifluoro-2-hydroxy-2-phenylpropanoyl)-7-azaspiro[3.5]nonan-2-yl)ethoxy)benzamide] | 16 nM | 113% | 551 nM | 46% |  | 
15 | CN(C)C(=O)c1ccc(O[C@H]2C[C@@H](CC3CCN(C(=O)[C@](O)(c4ccccc4)C(F)(F)F)CC3)C2)cc1Cl (single isomer, unassigned) [Example 37-1, 2-chloro-N,N-dimethyl-4-((1R,3s)-3-((1-((R or S)-3,3,3-trifluoro-2-hydroxy-2-phenylpropanoyl)piperidin-4-yl)methyl)cyclobutoxy)benzamide] | 10 nM | 131% |  |  |  | EC50 ([2]; LXR alpha IP): 381 nM; Emax [2, 5]: 42%
16 | CN(C)C(=O)c1ccc(O[C@H]2C[C@@H](CC3CCN(C(=O)[C@](O)(c4cccc(OC5CC5)c4)C(F)(F)F)CC3)C2)cc1Cl (single isomer, unassigned) [Example 37-2, 2-chloro-4-((1R,3s)-3-((1-((R or S)-2-(3-cyclopropoxyphenyl)-3,3,3-trifluoro-2-hydroxypropanoyl)piperidin-4-yl)methyl)cyclobutoxy)-N,N-dimethylbenzamide] | 40 nM | 109% |  | 2% | No IP | 
17 | CCOc1cccc([C@@](O)(C(=O)N2CCC(C[C@H]3C[C@@H](Oc4ccc(C(=O)N(C)C)c(Cl)c4)C3)CC2)C(F)(F)F)c1 (single isomer, unassigned) [Example 37-3, 2-chloro-4-((1R,3s)-3-((1-((R or S)-2-(3-ethoxyphenyl)-3,3,3-trifluoro-2-hydroxypropanoyl)piperidin-4-yl)methyl)cyclobutoxy)-N,N-dimethylbenzamide] | 17 nM | 124% |  | 9% | No IP | 
